Laboratory results published in ChEMBL document CHEMBL1140246, “Synthesis of cationic beta-vinyl substituted meso-tetraphenylporphyrins and their in vitro activity against herpes simplex virus type 1” (2005).

Experiments:
Vero [1] = assay: Photocytotoxicity was evaluated on the cell growth inhibition using Vero cells were at the concentration of 0.5 uM after 48 hr of incubation; type: functional, Chlorocebus sabaeus
Human alphaherpesvirus 1 [2] = assay: Photostability against herpes simplex virus type 1 after 15 min of irradiation with total light dose of 45 mW/cm**2; type: functional
Human alphaherpesvirus 1 [3] = assay: Photostability against herpes simplex virus type 1 after 3 min of irradiation with total light dose of 9 mW/cm**2; type: functional
Vero [4] = assay: Photocytotoxicity was evaluated on the cell growth inhibition using Vero cells were at the concentration of 1 uM after 48 hr of incubation; type: functional, Chlorocebus sabaeus
Vero [5] = assay: Photocytotoxicity was evaluated on the cell growth inhibition using Vero cells were at the concentration of 5 uM after 48 hr of incubation; type: functional, Chlorocebus sabaeus
Vero [6] = assay: Photocytotoxicity was evaluated on the cell growth inhibition using Vero cells were at the concentration of 20 uM after 48 h of incubation; type: functional, Chlorocebus sabaeus
Human alphaherpesvirus 1 [7] = assay: Photovirucidal effect against herpes simplex virus type 1 after 5 mins of irradiation time with white light of 50 mW/cm2; type: functional
Human alphaherpesvirus 1 [8] = assay: Photostability against herpes simplex virus type 1 after 5 min of irradiation with total light dose of 15 mW/cm**2; type: functional
Vero [9] = assay: Concentration required for cellular cytotoxicity against Vero cells
Vero [10] = assay: Photocytotoxicity was evaluated on the cell growth inhibition using Vero cells were at the concentration of 10 uM after 48 hr of incubation; type: functional, Chlorocebus sabaeus
Human alphaherpesvirus 1 [11] = assay: Photostability against herpes simplex virus type 1 after 1 min of irradiation with total light dose of 3 mW/cm**2; type: functional
Vero [12] = assay: Photocytotoxicity was evaluated on the cell growth inhibition using Vero cells were at the concentration of 0.1 uM after 48 hr of incubation; type: functional, Chlorocebus sabaeus
Vero [13] = assay: Photocytotoxicity was evaluated on the cell growth inhibition using Vero cells were at the concentration of 0.25 uM after 48 hr of incubation; type: functional, Chlorocebus sabaeus
Human alphaherpesvirus 1 [14] = assay: Photovirucidal effect against herpes simplex virus type 1 after 15 mins of irradiation time with white light of 50 mW/cm2; type: functional
Human alphaherpesvirus 1 [15] = assay: Photostability against herpes simplex virus type 1 after 10 min of irradiation with total light dose of 30 mW/cm**2; type: functional
Human alphaherpesvirus 1 [16] = assay: Photovirucidal effect against herpes simplex virus type 1 with no irradiation time with white light of 50 mW/cm2; type: functional
Vero [17] = assay: Photocytotoxicity was evaluated on the cell growth inhibition using Vero cells were at the concentration of 10 uM after 48 h of incubation; type: functional, Chlorocebus sabaeus
Vero [18] = assay: Photocytotoxicity was evaluated on the cell growth inhibition using Vero cells were at the concentration of 20 uM after 48 hr of incubation; type: functional, Chlorocebus sabaeus

SMILES | Viability (Vero [1]) | Intensity (Human alphaherpesvirus 1 [2]) | Intensity (Human alphaherpesvirus 1 [3]) | Viability (Vero [4]) | Viability (Vero [5]) | Viability (Vero [6]) | Virus inactivation (Human alphaherpesvirus 1 [7]) | Intensity (Human alphaherpesvirus 1 [8]) | CC50 (Vero [9]) | Viability (Vero [10]) | Intensity (Human alphaherpesvirus 1 [11]) | Viability (Vero [12]) | Viability (Vero [13]) | Virus inactivation (Human alphaherpesvirus 1 [14]) | Intensity (Human alphaherpesvirus 1 [15]) | Virus inactivation (Human alphaherpesvirus 1 [16]) | Viability (Vero [17]) | Viability (Vero [18])
C[n+]1ccc(/C=C/c2cc3[nH]c2c(-c2ccccc2)c2nc(c(-c4ccccc4)c4nc(c(-c5ccccc5)c5ccc([nH]5)c3-c3ccccc3)C=C4)C=C2)cc1.[Cl-] | 98.3% | 91% | 99% | 97.3% | 90.8% | 28% | 0% | 96% | 13.5 µM | 62% | 100% | 104.5% | 99.9% | 48.99% | 93% | – | – | –
C[n+]1ccccc1/C=C/c1cc2[nH]c1c(-c1ccccc1)c1nc(c(-c3ccccc3)c3nc(c(-c4ccccc4)c4ccc([nH]4)c2-c2ccccc2)C=C3)C=C1.[Cl-] | 101% | 83% | 94% | 95.3% | 84.6% | – | 96.98% | 93% | 13.7 µM | – | 100% | 104.8% | 103.3% | 99.61% | 88% | 27.8% | 69% | 18.8%
